Test results as given in patent US20250230193A1, “CYCLIC COMPOUND HAVING SELECTIVE KRAS INHIBITORY EFFECT ON HRAS AND NRAS” (CHUGAI SEIYAKU KABUSHIKI KAISHA, priority 2022, published 2025).
*1 amine or outer side, *2 acyl side, *3 side chain or, on linkers, in order; H or OH if unused. Where a SMILES comes first, the peptide text is derived from it. Bridges are numbered along the chain shown (N, C = ends). [ ]: non-standard residue; d: D form. The star is where a group is joined. hPhe(3-Cl-4-CF3) = N[C@@H](CCc1ccc(C(F)(F)F)c(Cl)c1)C(=O)O; NPrPhe(4-CF3) = CCCN[C@@H](Cc1ccc(C(F)(F)F)cc1)C(=O)O; X12 = COCCN([C@@H](Cc1ccc(C)cc1)C(=O)[*:2])[*:1]; NMeGly(cPent) = CN[C@H](C(=O)O)C1CCCC1; Hyp = O=C(O)[C@@H]1C[C@@H](O)CN1; NMeD = CN[C@@H](CC(=O)O)C(=O)O; NMeL = CN[C@@H](CC(C)C)C(=O)O; Morpholide = C1CN(*)CCO1; NMeA = CN[C@@H](C)C(=O)O; Ac5c = NC1(C(=O)O)CCCC1; Aze = O=C(O)[C@@H]1CCN1; Sar = CNCC(=O)O

Columns and labels:
[1] = molecular target: GDP-bound NRAS wild-type protein (Homo sapiens, UniProt P01111); experiment: Binding to NRAS by surface plasmon resonance (SPR), Single Cycle Kinetics
[2] = molecular target: GDP-bound HRAS wild-type protein (Homo sapiens, UniProt P01112); experiment: Binding to HRAS by surface plasmon resonance (SPR), Single Cycle Kinetics
[3] = SPR, GDP-bound NRAS wild-type vs GDP-bound KRAS wild-type
[4] = SPR, GDP-bound HRAS wild-type vs GDP-bound KRAS wild-type
[5] = KD ratio, GDP-bound NRAS wild-type vs GDP-bound KRAS wild-type, SPR
[6] = KD ratio, GDP-bound HRAS wild-type vs GDP-bound KRAS wild-type, SPR
[7] = KD ratio NRAS/KRAS, SPR, GDP-bound wild-type proteins
[8] = KD ratio HRAS/KRAS, SPR, GDP-bound wild-type proteins

Sequence of GDP-bound HRAS wild-type protein (P01112 whole entry): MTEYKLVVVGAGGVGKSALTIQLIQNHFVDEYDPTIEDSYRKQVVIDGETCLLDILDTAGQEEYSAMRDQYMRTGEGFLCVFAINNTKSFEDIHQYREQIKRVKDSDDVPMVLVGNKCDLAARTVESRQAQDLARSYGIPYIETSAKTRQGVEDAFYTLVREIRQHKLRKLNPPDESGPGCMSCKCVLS
Sequence of GDP-bound NRAS wild-type protein (P01111 whole entry): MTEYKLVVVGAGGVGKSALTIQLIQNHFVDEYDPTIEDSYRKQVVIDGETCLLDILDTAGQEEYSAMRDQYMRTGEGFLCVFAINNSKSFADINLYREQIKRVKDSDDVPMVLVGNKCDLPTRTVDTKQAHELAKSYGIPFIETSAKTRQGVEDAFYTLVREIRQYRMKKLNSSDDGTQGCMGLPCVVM

CCCN1C(=O)[C@@H]2CCN2C(=O)[C@H](C)N(C)C(=O)[C@H]([C@@H](C)CC)NC(=O)[C@H](CC(C)C)N(C)C(=O)C[C@@H](C(=O)N(C)C)N(C)C(=O)[C@H](C2CCCC2)N(C)C(=O)C2(CCCC2)NC(=O)[C@@H]2C[C@@H](OCC)CN2C(=O)[C@H](CCc2ccc(C(F)(F)F)c(Cl)c2)NC(=O)CN(C)C(=O)[C@@H]1Cc1ccc(C(F)(F)F)cc1 [PP0438] ([NMeL]I[NMeA][Aze][NPrPhe(4-CF3)][Sar][hPhe(3-Cl-4-CF3)][Hyp](Et)[Ac5c][NMeGly(cPent)][NMeD]-NMe2; lactam N-11)
NRAS/KRAS (ratio of KD value with respect to GDP-bound NRAS wild-type protein to KD value with respect to KRAS) ([1]; KD ratio NRAS/KRAS, SPR): C (A compound having a KD ratio of 0.1 or more and less than 3 is denoted as C) | HRAS/KRAS (ratio of KD value with respect to GDP-bound HRAS wild-type protein to KD value with respect to KRAS) ([2]; KD ratio HRAS/KRAS, SPR): C (A compound having a KD ratio of 0.1 or more and less than 3 is denoted as C)

CCCC[C@H]1C(=O)N[C@@H]([C@@H](C)CC)C(=O)N(C)CC(=O)N(C)[C@H]2C/C=C\CCN(C2=O)[C@@H](Cc2ccc(C)cc2)C(=O)N(C)CC(=O)N[C@@H](CCc2cc(F)c(C(F)(F)F)c(F)c2)C(=O)N2C[C@H](OCC)C[C@H]2C(=O)NC2(CC(C)(C)C2)C(=O)N(C)[C@@H](C2CCCC2)C(=O)N(C)[C@H](C(=O)N(C)C)CC(=O)N1C [PP2800]
NRAS/KRAS (ratio of KD value with respect to GDP-bound NRAS wild-type protein to KD value with respect to KRAS) ([1]; KD ratio NRAS/KRAS, class symbols): A (a compound having 10 or more and less than 20 is denoted as A) | HRAS/KRAS (ratio of KD value with respect to GDP-bound HRAS wild-type protein to KD value with respect to KRAS) ([2]; KD ratio HRAS/KRAS, class symbols): A (a compound having 10 or more and less than 20 is denoted as A)

CCO[C@@H]1C[C@H]2C(=O)NC3(CC(C)(C)C3)C(=O)N(C)[C@@H](C3CCCC3)C(=O)N(C)[C@H](C(=O)N(C)CC)CC(=O)N(C)[C@@H](C3CC3)C(=O)N[C@@H]([C@@H](C)CC)C(=O)N(C)CC(=O)N(C)[C@H]3C/C=C\CCN(C3=O)[C@@H](Cc3ccc(C(F)(F)F)cc3)C(=O)N(C)CC(=O)N[C@@H](CCc3cc(F)c(C(F)(F)F)c(F)c3)C(=O)N2C1 [PP2036]
NRAS/KRAS (ratio of KD value with respect to NRAS to KD value with respect to KRAS) [1, 3]: A (a compound having 10 or more and less than 20 is denoted as A) | HRAS/KRAS (ratio of KD value with respect to HRAS to KD value with respect to KRAS) [2, 4]: A (a compound having 10 or more and less than 20 is denoted as A)

CCO[C@@H]1C[C@H]2C(=O)N(C)C3(CCCC3)C(=O)N(C)[C@@H](C3CCCC3)C(=O)N(C)[C@H](C(=O)N(C)C)CC(=O)N(C)[C@@H](CC)C(=O)N[C@@H]([C@@H](C)CC)C(=O)N(C)CC(=O)N(C)[C@H]3C/C=C\CCN(C3=O)[C@@H](Cc3ccc(C(F)(F)F)cc3)C(=O)N(C)CC(=O)N[C@@H](CCc3cc(F)c(C(F)(F)F)c(F)c3)C(=O)N2C1 [PP1804]
NRAS/KRAS (ratio of KD value for NRAS to KD value for KRAS) [1, 5]: A (a compound having 10 or more and less than 20 is denoted as A) | HRAS/KRAS (ratio of KD value for HRAS to KD value for KRAS) [2, 6]: A (a compound having 10 or more and less than 20 is denoted as A)

CCO[C@@H]1C[C@H]2C(=O)NC3(CCC3)C(=O)N(C)[C@@H](C3CCCC3)C(=O)N(CCC3CCCC3)[C@H](C(=O)N3CCOCC3)CC(=O)N(C)[C@@H](CC(C)C)C(=O)N[C@@H]([C@@H](C)CC)C(=O)N(C)CC(=O)N(C)[C@H]3CCCCCN(C3=O)[C@@H](Cc3ccc(C(F)(F)F)cc3)C(=O)N(C)CC(=O)N[C@@H](CCc3cc(F)c(C(F)(F)F)c(F)c3)C(=O)N2C1 [PP0641]
NRAS/KRAS (ratio of KD value with respect to GDP-bound NRAS wild-type protein to KD value with respect to KRAS) ([1]; KD ratio NRAS/KRAS, SPR): A (a compound having 10 or more and less than 20 is denoted as A) | HRAS/KRAS (ratio of KD value with respect to GDP-bound HRAS wild-type protein to KD value with respect to KRAS) ([2]; KD ratio HRAS/KRAS, SPR): A (a compound having 10 or more and less than 20 is denoted as A)

CC[C@H](C)[C@@H]1NC(=O)[C@@H]2CCCCc3ccc(cc3)C[C@@H](C(=O)N(C)CC(=O)N[C@@H](CCc3ccc(C(F)(F)F)c(OC)c3)C(=O)N3C[C@H](OC4CCCC4)C[C@H]3C(=O)NC3(CC(C)(C)C3)C(=O)N(C)[C@@H](C3CCCC3)C(=O)N(C)[C@H](C(=O)N(C)C)CC(=O)N2C)N2CC/C=C\C[C@@H](C2=O)N(C)C(=O)CN(C)C1=O [PP3080]
NRAS/KRAS (ratio of KD value with respect to GDP-bound NRAS wild-type protein to KD value with respect to KRAS) [1, 7]: A (a compound having 10 or more and less than 20 is denoted as A) | HRAS/KRAS (ratio of KD value with respect to GDP-bound HRAS wild-type protein to KD value with respect to KRAS) [2, 8]: B (a compound having 3 or more and less than 10 is denoted as B)

CCO[C@@H]1C[C@H]2C(=O)NC3(CC(C)(C)C3)C(=O)N(C)[C@@H](C(CC)CC)C(=O)N(C)[C@H](C(=O)N(C)C)CC(=O)N(C)[C@@H](C)C(=O)N[C@@H]([C@@H](C)CC)C(=O)N(C)CC(=O)N(C)[C@H]3C/C=C\CCN(C3=O)[C@@H](Cc3ccc(C)cc3)C(=O)N(C)CC(=O)N[C@@H](CCc3cc(F)c(C(F)(F)F)c(F)c3)C(=O)N2C1 [PP2143]
NRAS/KRAS (ratio of KD value with respect to NRAS to KD value with respect to KRAS) [1, 3]: A (a compound having 10 or more and less than 20 is denoted as A) | HRAS/KRAS (ratio of KD value with respect to HRAS to KD value with respect to KRAS) [2, 4]: A (a compound having 10 or more and less than 20 is denoted as A)

CCOC[C@H]1C(=O)N[C@@H]([C@@H](C)CC)C(=O)N(C)CC(=O)N(C)[C@H]2CCCCCN(C2=O)[C@@H](Cc2ccc(C(F)(F)F)cc2)C(=O)N(C)CC(=O)N[C@@H](CCc2cc(F)c(C(F)(F)F)c(F)c2)C(=O)N2C[C@H](OCC)C[C@H]2C(=O)NC2(CCC2)C(=O)N(C)[C@@H](C2CCCC2)C(=O)N(C)[C@H](C(=O)N2CCOCC2)CC(=O)N1C [PP0851]
NRAS/KRAS (ratio of KD value with respect to NRAS to KD value with respect to KRAS) [1, 5]: B (a compound having 3 or more and less than 10 is denoted as B) | HRAS/KRAS (ratio of KD value with respect to HRAS to KD value with respect to KRAS) [2, 6]: B (a compound having 3 or more and less than 10 is denoted as B)

CC[C@H](C)[C@@H]1NC(=O)[C@H](CC(C)C)N(C)C(=O)C[C@@H](C(=O)N2CCOCC2)N(C)C(=O)[C@H](C2CCCC2)N(C)C(=O)C2(CCCC2)NC(=O)[C@@H]2CCCN2C(=O)[C@H](CCc2ccc(C(F)(F)F)c(Cl)c2)NC(=O)CN(C)C(=O)[C@H](Cc2ccc(C)cc2)N(CCOC)C(=O)CN(C)C(=O)CN(C)C1=O [PP0104] ([NMeL]I[Sar][Sar][X12][Sar][hPhe(3-Cl-4-CF3)]P[Ac5c][NMeGly(cPent)][NMeD]-Morpholide; lactam N-11)
NRAS/KRAS (ratio of KD for GDP-bound NRAS wild-type to KD for KRAS) ([1]; KD ratio NRAS/KRAS, SPR): B (a compound having 3 or more and less than 10 is denoted as B) | HRAS/KRAS (ratio of KD for GDP-bound HRAS wild-type to KD for KRAS) ([2]; KD ratio HRAS/KRAS, SPR): C (A compound having a KD ratio of 0.1 or more and less than 3 is denoted as C)

CCC[C@H]1C(=O)N[C@@H]([C@@H](C)CC)C(=O)N2CCC[C@H]2C(=O)N(C)[C@H]2C/C=C\CCN(C2=O)[C@@H](CC2CCC(F)(F)CC2)C(=O)N(C)CC(=O)N[C@@H](CCc2ccc(C(F)(F)F)c(OC)c2)C(=O)N2C[C@@H](C)C[C@H]2C(=O)N(C)C2(CCC2)C(=O)N(C)[C@@H](C2CCCC2)C(=O)N(C)[C@H](C(=O)N(C)C)CC(=O)N1C [PP2380]
NRAS/KRAS (ratio of KD value with respect to NRAS to KD value with respect to KRAS) [1, 3]: A (a compound having 10 or more and less than 20 is denoted as A) | HRAS/KRAS (ratio of KD value with respect to HRAS to KD value with respect to KRAS) [2, 4]: A (a compound having 10 or more and less than 20 is denoted as A)

CCC[C@H]1C(=O)N[C@@H](C2CCCCC2)C(=O)N(C)CC(=O)N(C)[C@H]2C/C=C\CCN(C2=O)[C@@H](Cc2ccc(C)cc2)C(=O)N(C)CC(=O)N[C@@H](CCc2ccc(C(F)(F)F)c(Cl)c2)C(=O)N2C[C@H](OCC)C[C@H]2C(=O)NC2(CC(C)(C)C2)C(=O)N(C)[C@@H](CC(C)C)C(=O)N(C)[C@H](C(=O)N(C)C)CC(=O)N1C [PP3021]
NRAS/KRAS (ratio of KD value with respect to GDP-bound NRAS wild-type protein to KD value with respect to KRAS) [1, 7]: AA (a compound having 20 or more is denoted as AA) | HRAS/KRAS (ratio of KD value with respect to GDP-bound HRAS wild-type protein to KD value with respect to KRAS) [2, 8]: A (a compound having 10 or more and less than 20 is denoted as A)
